Reference: US20070207228A1, “Composition for Regulating the Trophism of Hair Follicles and the Cutaneous Production of Sebum and Use Thereof in Androgenic Alopecia” (priority 2004, published 2007)
Values joined by “and” are separate entries in the source; they are usually repeats but may differ in a detail not shown here. Identical values can stand only once.

Tested on: 5-α-reductase
Experiment: in vivo inhibiting activity of 5-α-reductase: plasmatic DHT concentration after oral administration
Set-up: species or system Sprague-Dawley rats
Protocol: Determination in vivo of the inhibiting activity of 5-α-reductase of an extract of Boehmeria nippononivea.
For the in-vivo study of the inhibition of 5-α-reductase, Sprague-Dawley (Charles River Italia) male adult rats were used having a body weight of 200-250 g.
The animals were stalled under standard conditions: at a temperature of 22/23° C., with 65% relative humidity, by exposing them to light cycles of 12 h light/12 h darkness.
A standard diet in pellets (standard diet, Charles River) was administered to the rats, together with water ad libitum.
Samples were taken from the rear-orbital plexus, immediately before the pharmacological treatment (T0) and then at 3, 6 and 8 hours after administration.
The administration of the substance being tested was effected orally.
Furthermore, contemporarily with each sampling of the treated animals, samples were also taken from non-treated animals to determine the basal analyte level.
Plasma obtained from the whole blood, treated with EDTA after centrifugation, was preserved at −20° C. until analysis.
The plasmatic concentrations of DHT (dihydrotestosterone) were determined by a commercial kit (DSL, Chematil, Angri, SA) after extraction of the samples.
All the samples of an experimental set were analyzed together to reduce the inter analytical variability.

## CC(C)(C)NC(=O)[C@H]1CC[C@H]2[C@@H]3CC[C@H]4NC(=O)C=C[C@]4(C)[C@H]3CC[C@]12C [Finasteride]
Finasteride 1 mg oral, 3 hrs
  plasmatic DHT concentration, individual animals: 298.09 and 505.28 and 300.00 and 569.62 and 404.63 and 530.00
Finasteride 1 mg oral, 3 hrs, n = 6
  plasmatic DHT concentration, average: 434.603
Finasteride 1 mg oral, 6 hrs
  plasmatic DHT concentration, individual animals: 404.13 and 565.00 and 379.59 and 592.06 and 148.51 and 420.07
Finasteride 1 mg oral, 6 hrs, n = 6
  plasmatic DHT concentration, average: 418.227
Finasteride 1 mg oral, 8 hrs
  plasmatic DHT concentration, individual animals: 706.70 and 140.06 and 503.90 and 530.07 and 173.11 and 110.00
Finasteride 1 mg oral, 8 hrs, n = 6
  plasmatic DHT concentration, average: 360.640
Finasteride 5 mg oral, 3 hrs
  plasmatic DHT concentration, individual animals: 217.10 and 618.58 and 151.18 and 640.97 and 924.20 and 569.38
Finasteride 5 mg oral, 3 hrs, n = 6
  plasmatic DHT concentration, average: 520.235
Finasteride 5 mg oral, 6 hrs
  plasmatic DHT concentration, individual animals: 205.21 and 103.62 and 54.35 and 60.67 and 49.67 and 128.25 and 176.92 and 81.23
Finasteride 5 mg oral, 6 hrs, n = 8
  plasmatic DHT concentration, average: 107.490
Finasteride 5 mg oral, 8 hrs
  plasmatic DHT concentration, individual animals: 201.56 and 108.76 and 745.40 and 576.60 and 250.90 and 300.12
Finasteride 5 mg oral, 8 hrs, n = 6
  plasmatic DHT concentration, average: 363.890
oral, 3, 6 and 8 hours after administration
  trend of the DHT concentration following administration: 8 hours after treatment, increases returning to the basal levels
